Assay results published in US20230372290A1, “FORMULATIONS COMPRISING BOTANICAL EXTRACTS” (APEX BIOTECH RESEARCH PTY LTD, priority 2020, published 2023).
Like-named read-outs stand apart in the source and are kept apart here.

Key:
SARS-CoV-2 (Vic 01) = assay: microbe, parasite or virus in culture; format: cell-based; conditions: for Microscopy at day 3: Vero cells, 1000 TCID50 SARS-CoV-2, cytopathic effect (CPE)
ACE2 protein = ACE2 protein by ELISA in cell lysate of CACO-2 cells; format: cell-based, human; conditions: 72 hours, 1 μM daily for three days, compared to UP-P, FIG. 3
Description: FIG. 3 illustrates the expression of ACE2 protein by ELISA in cell lysate of CACO-2 cells 72 hours following treatment with andrographolide (UP-A) and piceid (UP-P) (1 μM) daily for three days.
For ACE2 protein measurements, Caco-2 cells were scraped from each well in ice-cold RIPA buffer for ELISA assays. To determine the quantity of ACE2 in Caco-2 cells an Angiotensin Converting Enzyme 2 (ACE2) ELISA Kit (CusaBio, Wuhan, Hubei, China, catalogue number: CSB-E17204m) was performed on samples as per the manufacturers protocol. Briefly, each of the samples was loaded with Sample Diluent in duplicate wells. A standard curve was prepared from a Standard solution provided. 0, 6.25, 12.5, 25, 50, 100, 200 and 400 μg/mL of the standard was added to a series of wells in duplicate. The final volume of each standard well was made up to […] with the addition of Sample Diluent. […] of provided Biotin-antibody (1×) was added to each well and then after washing steps, […] of HRP-avidin antibody (1×). The plate was put on shake mode on a CLARIOstarPlus Multi-Mode Microplate Reader (BMG Labtech, Ortenberg, Germany) to ensure proper mixing before being scanned at Ex/Em=570/540 nm in an end point mode.

ACE2 mRNA = format: cell-based, African green monkey (Chlorocebus sp)
M^pro = M^pro (Severe acute respiratory syndrome coronavirus 2, UniProt P0DTD1); assay: Initial in silico and enzymology studies targeting M^pro

Row | SMILES | Microscopy at day 3 (SARS-CoV-2 (Vic 01); drug conc. 0.078125 μM) | Microscopy at day 3 (SARS-CoV-2 (Vic 01); drug conc. 0.15625 μM) | Microscopy at day 3 (SARS-CoV-2 (Vic 01); drug conc. 0.3125 μM) | Microscopy at day 3 (SARS-CoV-2 (Vic 01); drug conc. 0.625 μM) | Microscopy at day 3 (SARS-CoV-2 (Vic 01); drug conc. 1.25 μM) | Microscopy at day 3 (SARS-CoV-2 (Vic 01); drug conc. 2.5 μM) | Microscopy at day 3 (SARS-CoV-2 (Vic 01); drug conc. 5 μM) | Microscopy at day 3 (SARS-CoV-2 (Vic 01); drug conc. 10 μM) | Microscopy at day 3 (SARS-CoV-2 (Vic 01); drug conc. 20 μM) | Microscopy at day 3 (SARS-CoV-2 (Vic 01); drug conc. 40 μM) | ACE2 mRNA expression (ACE2 mRNA; Vero (AGM) cells, 48 h, FIG. 1) | further results
1 | C=C1CCC2[C@@](C)(CC[C@@H](O)[C@@]2(C)CO)C1C/C=C1/C(=O)OCC1O (stereo partly drawn) [Andrographis, 3-[2-[Decahydro-6-hydroxy-5-(hydroxymethyl)-5,8a-dimethyl-2-methylene-1-napthalenyl]ethylidene]dihydro-4-hydroxy-2(3H)-furanone] | CPE | CPE | CPE | CPE | CPE | CPE | CPE | CPE | CPE | Toxicity | significantly decreased | IC50 (SARS-CoV-2 (Vic 01); Severe acute respiratory syndrome coronavirus 2, Vero, 72 h, read-out: IC50 calculated from virus titration (TCID50 data)): 3.25 µM; antiviral activity against SARS-CoV-2 (SARS-CoV-2 (Vic 01); alone and in combination with piceid and ursolic acid): showed antiviral activity; ACE2 protein levels by ELISA (ACE2 protein): decreased; time of maximal effect on ACE2 mRNA expression (ACE2 mRNA; FIG. 2, decreasing at 48 hours and diminishing at 72 hours): 24 h; concentration below which loss of efficacy is observed (ACE2 mRNA) (ACE2 mRNA; FIG. 2 dose response): below 0.5 μM; concentration achieving the maximal response (ACE2 mRNA) (ACE2 mRNA; FIG. 2 dose response, no substantial increase in activity at higher doses): 1 µM; ACE2 mRNA expression (ACE2 mRNA; Vero (AGM) cells, 24 hours, FIG. 2): decreasing ACE2 mRNA expression; dose with the greatest effect on ACE2 mRNA expression (ACE2 mRNA; Vero (AGM) cells, 48 h, FIG. 1, lowest dose): 1 µM
2 | OCC1O[C@@H](Oc2cc(O)cc(/C=C/c3ccc(O)cc3)c2)C(O)C(O)[C@@H]1O (stereo partly drawn) [Piceid, 2-[3-Hydroxy-5-[(E)-2-(4-hydroxyphenyl)ethenyl]phenoxy]-6-(hydroxymethyl)oxane-3,4,5-triol] | CPE | CPE | CPE | CPE | CPE | CPE | CPE | CPE | CPE | CPE | no discernible effect | candidate targeting M^pro (M^pro): promising candidate
3 | C[C@H]1[C@H](C)CC[C@]2(C(=O)O)CC[C@]3(C)C(=CC[C@@H]4[C@@]5(C)CC[C@H](O)C(C)(C)[C@@H]5CC[C@]43C)[C@H]12 [Ursolic acid, (1S,2R,4aS,6aR,6aS,6bR,8aR,10S,12aR,14bS)-10-Hydroxy-1,2,6a,6b,9,9,12a-heptamethyl-2,3,4,5,6,6a,7,8,8a,10,11,12,13,14b-tetradecahydro-1H-picene-4a-carboxylic acid] | CPE | CPE | CPE | CPE | CPE | CPE | CPE | CPE | CPE | Toxicity | – | ACE2 mRNA expression (ACE2 mRNA): decreased ACE2 mRNA expression to a lesser extent in a dose dependent manner
